In brackets after ≈: the same amount, converted by molar mass. Several values for one entry are separate records, joined by “and”; a condition that tells them apart may be missing. Equal entries are not always repeated. Where two headings read alike, the source gives them in different places.
How the values were obtained:
[1] = tested on: MRSA biofilm; assay: MBEC, MBEC Inoculation Tray by Innovotech (to 10^2 CFU/peg in 24 hours); type: cell-based, methicillin-resistant Staphylococcus aureus; conditions: Table 4
[2] = tested on: A. baumannii biofilm; assay: as above; type: cell-based, Acinetobacter baumannii; conditions: Table 4
Excerpt: To determine the MBEC of each polyamine compound, the MBEC Inoculation Tray by Innovotech, formerly known as the Calgary biofilm device, was used. Within this device, biofilms grow on the surface of polystyrene pegs, 96 of which are attached to a lid. These pegs are inserted into a flat bottom 96-well plate. In this instance, the MBEC of a molecule was defined as the concentration of compound (in μg/mL) required to reduce 10^5 or 10^6 CFU/peg (biofilm levels varied by isolate) to 10^2 CFU/peg in a 24-hour period.
Following the manufacturer's guidelines, biofilms were grown on the surface of each peg by first making a 0.5 McFarland of each isolate. The 0.5 McFarland was diluted 1:100 in CAMHB. Into each well of a flat bottom 96-well plate, 150 μL of broth were pipetted. The plate was shaken at 100 rpm for 24 hours (P. aeruginosa and A. baumannii) or 48 hours (MRSA). The pegs were then placed into a separate flat bottom 96-well plate for 10 seconds with 200 μL of phosphate buffered saline (PBS) in each well to remove nonadherent cells. The lid was then placed into a 96-well plate that contained varying concentrations of antimicrobial with 200 μL per well. The plate was incubated for 24 hours at 37° C. after which time 100 μL of broth were plated on TSA. TSA plates were incubated 24 hours at 37° C. and the number of CFU counted to calculate the CFU/peg. In this instance, the MBEC was defined as the concentration of antimicrobial required to reduce 10^5 or 10^6 CFU/peg to 10^2 CFU/peg in a 24 hour period.
To determine the MBEC, the MBEC Inoculation Tray by Innovotech, formerly known as the Calgary biofilm device, is used. Within this device, biofilms grow on the surface of polystyrene pegs, 96 of which are attached to a lid. These pegs are inserted into a flat bottom 96-well plate. In this instance, the MBEC of a molecule is defined as the concentration of compound required to reduce approximately 10^6 CFU/peg to approximately 10^2 CFU/peg in a 24-hour period.
Following the manufacturer's guidelines, biofilms are grown on the surface of each peg by first making a 0.5 McFarland of A. baumannii. The 0.5 McFarland is diluted 1:100 in CAMHB broth. Into each well of a flat bottom 96-well plate, 150 μL of broth is pipetted. The plate is shaken at 100 rpm for 24 hours. The pegs are placed into a separate flat bottom 96-well plate for 10 seconds with 200 μL of phosphate buffered saline (PBS) in each well to remove nonadherent cells. The lid is placed into a 96-well plate that contains varying concentrations of antimicrobial with 200 μL of broth per well. The plate is incubated for 24 hours at 37° C. after which time 100 μL of broth is plated on TSA. TSA plates is incubated 24 hours at 37° C. and the number of CFU counted to calculate the CFU/peg.
MBEC data were collected using the MBEC Inoculation Tray by Innovotech. The MBEC was defined in these preliminary results as the concentration of antimicrobial required to reduce 10^5 or 10^6 CFU/peg to 10^2 CFU/peg in a 24-hour period.

[3] = tested on: MRSA biofilm; assay: EBEC, high number biofilms on PEEK membranes (10^9 to 10^2 CFU/PEEK membrane in 24 hours); type: cell-based, methicillin-resistant Staphylococcus aureus; conditions: for EBEC, MRSA: Table 4
Protocol: (§1) In addition to determining the MIC and the MBEC of polyamine compounds against planktonic bacteria and low number biofilms, our group wanted to determine the efficacy of polyamine compounds against high number biofilms. To do so, biofilms were grown on the surface of polyetheretherketone (PEEK) membranes using a membrane biofilm reactor. This reactor is similar to the CDC biofilm reactor, but rather than growing biofilms on coupon surfaces, the reactor was modified to hold PEEK membranes. In short, to grow biofilms within this system, 500 mL of brain heart infusion (BHI) broth were inoculated with 1 mL of a 0.5 McFarland. The reactor was placed on a hot plate set at 34° C. and the bacteria were grown under batch conditions for 24 hours. Following this protocol, biofilms typically grow to 10^9 CFU/PEEK membrane. […] A solution of 10% BHI was then flowed through the reactor at a rate of 6.94 mL/min for an additional 24 hours. PEEK membranes were then removed and placed into 2 mL of CAMHB that contained a desired concentration of polyamine compound or antibiotic. The EBEC was defined as the concentration of antimicrobial required to reduce a biofilm from approximately 10^9 CFU/PEEK membrane to approximately 10^2 CFU/PEEK membrane in a 24-hour period.
(§2) In addition to determining the MIC and the MBEC of compounds against planktonic bacteria and low number biofilms, the efficacy of the compounds of the invention against high number biofilms is determined. To do so, biofilms are grown on the surface of PEEK membranes using a membrane biofilm reactor (Williams, D. L., Haymond, B. S. & Bloebaum, R. D. Use of delrin plastic in a modified CDC biofilm reactor. Res J Microbiol 6, 425-429 (2011); Williams, D. L., Woodbury, K. L., Haymond, B. S., Parker, A. E. & Bloebaum, R. D. A modified CDC biofilm reactor to produce mature biofilms on the surface of PEEK membranes for an in vivo animal model application. Curr Microbiol 62, 1657-1663 (2011); Williams, D. L. et al., In Vivo Efficacy of a Silicone—Cationic Steroid Antimicrobial Coating to Prevent Implant-Related Infection. Biomaterials 33, 8641-8656 (2012); Williams, D. L. et al., Experimental model of biofilm implant-related osteomyelitis to test combination biomaterials using biofilms as initial inocula. J Biomed Mat Res A 100, 1888-1900 (2012)). This reactor is similar to the CDC biofilm reactor, but rather than growing biofilms on coupon surfaces, the reactor was modified to hold PEEK membranes. In short, to grow biofilms within this system, 500 mL of brain heart infusion (BHI) broth is inoculated with 1 mL of a 0.5 McFarland. The reactor is placed on a hot plate set at 34° C. and the bacteria grown under batch conditions for 24 hours. A solution of 10% BHI will then be flowed through the reactor at a rate of 6.94 mL/min for an additional 24 hours. Following this protocol, biofilms typically grow to 10^9 CFU/PEEK membrane. PEEK membranes is removed and placed into 2 mL of CAMHB that contain a desired concentration of the test compound. The EBEC is defined as the concentration of antimicrobial required to reduce a biofilm from approximately 10^9 CFU/PEEK membrane to approximately 10^2 CFU/PEEK membrane in a 24-hour period.
EBEC data were collected to determine the efficacy of CZ-52, CZ-58 and traditional antibiotics against high number biofilms containing approximately 10^9 CFU grown on the surface of a polyetheretherketone (PEEK) membrane.

[4] = tested on: A. baumannii biofilm; assay: as above; type: cell-based, Acinetobacter baumannii; conditions: Table 4
Protocol: as §1, §2
EBEC data were collected to determine the efficacy of CZ-52, CZ-58 and traditional antibiotics against high number biofilms containing approximately 10^9 CFU grown on the surface of a polyetheretherketone (PEEK) membrane. […] In contrast, at 250 μg/mL CZ-52 was able to reduce MRSA biofilms by greater than 7 log10 units in a 24-hour period. Although the MIC of CZ-58 was lower against MRSA compared to A. baumannii, CZ-58 had greater activity against biofilms of A. baumannii than against MRSA biofilms in the EBEC assay. […] Although the MIC of CZ-58 was “high” compared to MICs of traditional antibiotics, the efficacy against biofilms was promising.

[5] = tested on: biofilm of MRSA; assay: Combination treatment: dispersal of MRSA biofilm; type: cell-based, methicillin-resistant Staphylococcus aureus; conditions: CZ-7 at […] mixed with chlorhexidine gluconate at […]; biofilm of 10^11 cells; within one hour
[6] = tested on: MRSA biofilm; assay: MBEC assay (Calgary Biofilm Device), 100% eradication (Example 2); type: cell-based, methicillin-resistant Staphylococcus aureus; conditions: eradicate 100% of detectable biofilm
Protocol: In addition to determining the MIC, the minimum biofilm eradication concentration (MBEC) of PBC-51 was also determined. The MBEC was determined using the MBEC assay, formerly known as the Calgary Biofilm Device, developed by Innovotech. In this instance, the MBEC was defined as the amount of antimicrobial required to eradicate 100% of detectable biofilm after being grown in the MBEC device. To grow the biofilms within this device, 150 μL of solution containing a concentration of 10^5 cells/mL were inoculated into each well of a 96-well plate. A lid containing 96 pegs was placed onto the plate and incubated for 24 hours at 37° C. while being shaken at 110 rpm. Biofilms developed on the surface of the polystyrene pegs within the 96-well plate. After 24 hours, each peg contained between 10^5 and 10^6 cells in well-established biofilms. The lid with pegs was transferred to a 96-well plate that contained 200 μL of varying concentrations of the compound and was incubated at 37° C. for an additional 24 hours. The plate was then sonicated, and the biofilms quantified using a 10-fold dilution series to determine the MBEC.

[7] = tested on: MRSA biofilm; assay: EBEC on PEEK membranes, 100% eradication (Example 2); type: cell-based, methicillin-resistant Staphylococcus aureus; conditions: PEEK membrane, eradicate all detectable amounts (100%)
Protocol: The fourth test that was performed was the effective biofilm eradication concentration (EBEC). To determine the EBEC, biofilms of MRSA and P. aeruginosa ATCC 27853 were grown on the surface of PEEK membranes using a previously established protocol. Briefly, 500 mL of brain heart infusion (BHI) broth were inoculated with 10^5 cells/mL of MRSA or P. aeruginosa. BHI broth was placed into a membrane biofilm reactor and placed on a hot plate set at 34° C. for 24 hours with a stir bar rotating at 130 rpm. Following the initial 24-hour growth period, a 10% BHI broth solution was flowed through the reactor at a rate of 6.944 mL/min for another 24 hours. After 48 hours of growth, each PEEK membrane had biofilm growth on it. In this experiment, there were ˜2×10^11 cells of MRSA per PEEK membrane and −2×10^10 cells of P. aeruginosa per PEEK membrane. The EBEC was defined as the concentration of the compound that was required to eradicate all detectable amounts (100%) of bacteria within the biofilms.

[8] = tested on: MRSA; assay: MIC in CAMHB, 96-well plate (10^5 to 10^2 CFU/mL in 24 hours); type: cell-based, methicillin-resistant Staphylococcus aureus; conditions: Table 4
Protocol: To determine the MIC of polyamine compounds, the protocol described herein was used.
In brief, a 0.5 McFarland of each bacterial isolate was made. A 0.5 McFarland is a measure of turbidity in a liquid sample that contains approximately 1×10̂^8 CFU/mL. The 0.5 McFarland standard was diluted in cation adjusted Mueller Hinton Broth (CAMHB), and […], of broth were added to a well of a 96-well plate. In addition, 50 μL of CAMHB that contained a desired concentration of antimicrobial were also added to the well for a final volume of 100 and a final concentration of approximately 5×10^4 CFU/well (which equated to approximately 5×10^5 CFU/mL). Each well contained a desired amount of polyamine compound in order to experimentally determine the MIC. Each 96-well plate was incubated at 37° C. for 24 hours. The contents of each well were plated on tryptic soy agar (TSA). TSA plates were incubated for 37° C. for 24 hours after which the number of CFU were counted and used to calculate the CFU/mL that remained after exposure to varying concentrations of compound. This procedure was repeated n=8 times for each concentration of antimicrobial. […]

Compound	MBEC, MRSA [1]	MBEC, A. baumannii [2]	EBEC, MRSA [3]	EBEC, A. baumannii [4]	dispersal of MRSA biofilm [5]	MBEC [6]	EBEC [7]	MIC, MRSA [8]	reduction of MRSA biofilms [3]	reduction of MRSA biofilms ([3]; at 25,000 μg/mL)
NCCCNCCCNCc1ccccc1 [CZ-7, benzylnorspermidine]	> 500 μg/mL and > 2,259 μM	> 500 μg/mL and > 2,259 μM	> 5,000 μg/mL and > 22,590 μM	> 10,000 μg/mL and > 45,180 μM	significant dispersal					
CN[C@H](CC(C)C)C(=O)N[C@H]1C(=O)N[C@@H](CC(N)=O)C(=O)N[C@H]2C(=O)N[C@H]3C(=O)N[C@H](C(=O)N[C@H](C(=O)O)c4cc(O)cc(O)c4-c4cc3ccc4O)[C@H](O)c3ccc(c(Cl)c3)Oc3cc2cc(c3O[C@@H]2O[C@H](CO)[C@@H](O)[C@H](O)[C@H]2O[C@H]2C[C@](C)(N)[C@H](O)[C@H](C)O2)Oc2ccc(cc2Cl)[C@H]1O [Vancomycin, reference compound]	> 500 μg/mL and > 345 μM		> 25,000 μg/mL			> 500 μg/mL and > 336.50 μM	> 20,000 μg/mL and > 13,460 μM	10 µg/mL (≈ 6.9 µM)	< 1 log10 unit	< 1 log10 unit

— patent US20150274639A1, “METHODS OF USE FOR COMPOSITIONS COMPRISING A BIOCIDAL POLYAMINE” (Curza Global, LLC, priority 2013, published 2015)
